# Assay results from patent US20120022122A1, “TREATMENT AND PREVENTION OF DELETERIOUS EFFECTS ASSOCIATED WITH ALCOHOL CONSUMPTION” (priority 2008, published 2012).
# Like-named read-outs stand apart in the source and are kept apart here.
# Legend:
# [1] = system: alcohol-induced flush reaction; conditions: for effects/effectiveness compared to no treatment or comparator: cimetidine 300 mg vs famotidine 10 mg vs no treatment; for effectiveness as preventative treatment against symptoms of alcohol-induced flush reaction (summary of the studies): famotidine at low dose, cimetidine at a higher dose; for undesired side-effects (drowsiness, sedation): famotidine 10 mg oral chewable tablet, with alcohol;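 for all read-outs here: human subjects with alcohol-induced flushing observed over social drinking occasions, with each subject also tested untreated as the control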
# [2] = system: alcohol flush reaction and hangover; conditions: previous studies with famotidine alone
# [3] = cited from earlier work
# [4] = Patient one, oral 45 min before drinking: cimetidine 300 mg (2 beverages, about 2 h) or famotidine 10 mg (2 oz tequila and 5 glasses beer, more than 6 h)
# [5] = Patient three, oral 45 min before drinking: cimetidine 300 mg (2 beverages, about 3 h) or famotidine 10 mg (cocktails, about 4 h)
# [6] = Subject 2, with alcohol, oral 45 min before drinking: cimetidine 300 mg or famotidine 10 mg
# [7] = Subject 4, with alcohol, oral 45 min before drinking: cimetidine 300 mg or famotidine 10 mg
# [8] = Subject 1, with alcohol, oral 45 min before drinking: loratidine 20 mg or famotidine 10 mg
# [9] = Subject 3, with alcohol, oral 45 min before drinking: loratidine 20 mg or famotidine 10 mg
# [10] = Subject 5, with alcohol, oral 45 min before drinking: loratidine 20 mg or famotidine 10 mg
structure (smiles),measurement,setting,value
CN/C(=N/CCSCc1nc[nH]c1C)NC#N [Cimetidine],effects/effectiveness compared to no treatment or comparator,[1]; Patient one,slightly less aggressive
same,flushing reaction after drinking alcohol,[1]; [4],"still experienced a facial flushing reaction, increased heart rate, as well as a headache"
same,effects/effectiveness compared to no treatment or comparator,[1]; Patient three,slightly less aggressive
same,flushing reaction after drinking alcohol,[1]; [5],still experienced a facial flushing reaction and an increased heart rate
same,Heart rate,[1]; [6],97
same,Temp (F.),[1]; [6],98.0 F.
same,Heart rate,[1]; [7],87
same,Temp (F.),[1]; [7],97.1 F.
same,effectiveness as preventative treatment against symptoms of alcohol-induced flush reaction (summary of the studies),[1],minimally effective
NC(N)=Nc1nc(CSCCC(N)=NS(N)(=O)=O)cs1 [Famotidine],symptoms associated with hangover,[2],did not appear to significantly reduce or eliminate symptoms associated with hangover
same,redness while imbibing in alcohol,[1]; 10 mg of famotidine,significantly prevents redness
same,"undesired side-effects (drowsiness, sedation)",[1]; Patient five,no undesired side-effects whatsoever
same,period after which the protective effect (flushing blockade) dissipated,"[1]; Patient five, famotidine 10 mg oral, continued drinking beyond six drinks and more than six hours",about five
same,flushing reaction after drinking alcohol,"[1]; Patient five, oral 45 min before drinking: loratadine 20 mg (1 beverage, 1 h) or famotidine 10 mg (5 beverages, about 5 h)",neither a facial flushing reaction nor any nasal congestion
same,"undesired side-effects (drowsiness, sedation)",[1]; Patient four,no undesired side-effects whatsoever
same,flushing reaction after drinking alcohol,"[1]; Patient four, oral 45 min before drinking: loratadine 20 mg (3 beverages, 3-4 h) or famotidine 10 mg (multiple glasses of wine, 4 h)",no flushing reactions of the face or of the torso
same,effects/effectiveness compared to no treatment or comparator,[1]; Patient one,much more effective than cimetidine
same,"undesired side-effects (drowsiness, sedation)",[1]; Patient one,no undesired side-effects whatsoever
same,flushing reaction after drinking alcohol,[1]; [4],no facial flushing reaction
same,effects/effectiveness compared to no treatment or comparator,[1]; Patient three,much more effective than cimetidine or no treatment
same,"undesired side-effects (drowsiness, sedation)",[1]; Patient three,no undesired side-effects whatsoever
same,flushing reaction after drinking alcohol,[1]; [5],no flushing reactions of the face
same,"undesired side-effects (drowsiness, sedation)",[1]; Patient two,no undesired side-effects whatsoever
same,flushing reaction after drinking alcohol,"[1]; Patient two, oral 45 min before drinking: loratadine 20 mg (3 beverages, 3-4 h) or famotidine 10 mg (2-3 glasses Vodka, several hours)","no flushing reactions, either of the face or of the torso"
same,Heart rate,[1]; [8],77
same,Temp (F.),[1]; [8],97.3 F.
same,Heart rate,[1]; [6],82
same,Temp (F.),[1]; [6],98.2 F.
same,Heart rate,[1]; [9],84
same,Temp (F.),[1]; [9],97.4 F.
same,Heart rate,[1]; [7],78
same,Temp (F.),[1]; [7],97.1 F.
same,Heart rate,[1]; [10],83
same,Temp (F.),[1]; [10],97.3 F.
same,effectiveness as preventative treatment against symptoms of alcohol-induced flush reaction (summary of the studies),[1],highly effective
same,solubility,[3]; in ethanol,practically insoluble
same,solubility,[3]; in glacial acetic acid,freely soluble
same,solubility,[3]; in methanol,slightly soluble
same,solubility,[3]; in water,very slightly soluble
